Test results reported in article PMC11328599, “Crystal structure of dihydroneopterin aldolase from Mycobacterium tuberculosis associated with 8-mercaptoguanine, and development of novel S8-functionalized analogues as inhibitors: Synthesis, enzyme inhibition, in vitro toxicity and antitubercular activity” (Journal of Enzyme Inhibition and Medicinal Chemistry, 2024).
≈ marks a conversion by molar mass, not a printed value. Where “and” joins values, the source holds several entries; their conditions need not be identical. Identical values can stand only once. Like-named read-outs stand apart in the source and are kept apart here.

Assays:
MtFolB = target: T1, MtFolB (Mycobacterium tuberculosis, UniProt P9WNC5); assay: Mode of inhibition and inhibition constants on MtFolB aldolase activity (Lineweaver-Burk); type: biochemical; settings: towards substrate DHNP; for Ki: read-out: Kis DHNP
T1 construct: made in house
T1 sequence (P9WNC5 whole entry): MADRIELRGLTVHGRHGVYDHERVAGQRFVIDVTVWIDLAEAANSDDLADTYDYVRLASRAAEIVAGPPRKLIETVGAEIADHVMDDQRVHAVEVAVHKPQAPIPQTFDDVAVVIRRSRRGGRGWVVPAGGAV
Procedure: The mode of inhibition and the inhibition constants (Ki and/or Kis) were defined for the compounds 3a-e. There are three categories for the inhibition mode: competitive, where inhibitor and substrate binding are mutually exclusive; non-competitive, if the inhibitor can bind to both the free enzyme and the enzyme-substrate complex; or uncompetitive, when the inhibitor binds only to the enzyme-substrate complex. For each compound, 3 curves were performed with fixed-varied inhibitor concentration and varying the DHNP concentration until saturation of enzyme activity. For the compound 3a the fixed-varied concentrations were 0.2 μM, 0.5 μM and 0.8 μM (varying DHNP 0.5 – 10 μM). For the compound 3b the fixed-varied concentrations were 0.1 µM (varying DHNP 0.2 – 10 µM); 0.3 μM (varying DHNP 0.5 – 10 μM) and 0.6 μM (varying DHNP 0.5 – 15 μM). For the compound 3c the fixed-varied concentrations were 0.3 μM, 0.6 μM and 0.9 μM (varying DHNP 0.5 – 10 μM). For the compound 3d the fixed-varied concentrations were 0.5 μM, 1 μM (varying DHNP 0.5 – 10 μM) and 2.5 μM (varying DHNP 1 – 10 μM). For the compound 3e the fixed-varied concentrations were 1.4 µM, 3.5 µM (varying DHNP 0.5 – 10 µM) and 7 µM (varying DHNP 1 – 10 µM). Furthermore, we performed a control experiment with 10% DMSO in the absence of inhibitors varying the DHNP concentration until saturation (0.2 – 10 µM). The straight-line patterns obtained were used to define the mode of inhibition. The diagnostic signature of a competitive inhibitor is a set of lines that intersect on the y-axis, for non-competitive inhibitors the pattern of intersection is to the left of the y-axis and for uncompetitive inhibitors the lines are parallel to each other. The inhibition constants were calculated using Equation (2) for competitive inhibitors or Equation (3) for non-competitive inhibitors, where [I] is the inhibitor concentration, [S] is the substrate concentration, KM is the Michaelis-Menten constant, Vmax is the maximum velocity, Kis is the inhibition constant for the enzyme-substrate complex, and Kii is the inhibition constant for the enzyme-substrate-inhibitor complex. (2) 1/v0=KM/Vmax(1+[I]/Kis)1/[S]+1/Vmax (3) 1/v0=KM/Vmax(1+[I]/Kis)1/[S]+1/Vmax(1+[I]/Kii)

[1] = system: M. tuberculosis H37Rv strain; assay: Minimum inhibitory concentration, resazurin reduction microplate assay (REMA); type: cell-based; settings: Mycobacterium tuberculosis
in vitro = type: cell-based; settings: % of cell viability ± SEM
Procedure: (§1) Cell viability assays in the presence of compound 3e were performed in both Vero (BCRJ code 0245) and HepG2 (BCRJ code 0291) cells using MTT (3-[4,5-dimethylthiazol-2-yl]-2,5 diphenyl tetrazolium bromide)[21] and neutral red uptake (NRU)[22] methods. Both cell lines were grown in Dulbecco’s Modified Eagle Medium (DMEM-Gibco, Grand Island, NY, USA) supplemented with 10% or 20% inactivated foetal bovine serum (FBS- Invitrogen) for Vero and HepG2, respectively, 1% penicillin (Gibco) and streptomycin (Gibco), and 0.1% fungizone (Gibco). The experiments were performed in 96-well plates. First, cells were seeded at 6 x 10^3 (Vero) or 7 x 10^3/well (HepG2) and incubated overnight at 37 °C under a 5% CO2 atmosphere. Then, the medium was removed and replaced with fresh medium containing the compound at a final concentration of 75 µM, 87.5 µM, or 100 µM with DMSO at a final concentration of 0.8%. Cells were incubated during 72 h at 37 °C under a 5% CO2 atmosphere. For the MTT assay, the medium was removed after the incubation and replaced with MTT reagent (Sigma-Aldrich) at 5 mg/mL, and then the cells were incubated for 4 h. DMSO was used to solubilise formazan crystals. The absorbance was measured at 570 nm using microplate reader (EZ Read 400 microplate reader, Biochrom, Cambridge, UK). Precipitated purple formazan crystals were directly proportional to the number of live cells with mitochondrial metabolism. For the NRU assay, after the incubation with the compound, the media was removed and 200 µL of neutral red dye solution (Sigma-Aldrich) at 25 µg/mL prepared in serum-free medium was added to each well. The plate was then incubated for 3 h at 37 °C under 5% CO2. After this time, cells were washed twice with PBS, followed by incubation with 100 μL of a desorb solution (ethanol/acetic acid/water, […]) for 30 min, with gentle shaking to extract neutral red dye from the viable cells. The absorbance was measured at 562 nm using microplate reader (EZ Read 400 microplate reader, Biochrom, Cambridge, UK). Treated control wells (0.8% DMSO) were used as references for maximum cell viability (100%). Three independent experiments were performed, and the data were expressed as the means of cell viability ± the standard error of the means. Statistical analysis was performed using one-way ANOVA analysis of variance followed by Dunett’s Multiple Comparison Test post-test using GraphPad Prism 9.0.0 (San Diego, CA, USA).

HepG2 cells = assay: in vitro; type: cell-based; settings: for % of cell viability ± SEM: human, 72 h
Procedure: as §1

Vero cells = assay: in vitro; type: cell-based; settings: for % of cell viability ± SEM: African green monkey, 72 h
Procedure: as §1

physchem = type: physicochemical; settings: 25 °C, thermodynamic from solid
Procedure: The solubility of the compound 3e was evaluated under three pH conditions: pH 1.2 (HCl 0.1 M); pH 7.4 (PBS 1X); and pH 9.1 (NH4HCO3 0.1 M). For this assay, we prepared a suspension of compound 3e at 1 mg/mL in each buffer solution by vortexing it for 1 min. Then, the suspension was kept under constant shaking for 4 h at 25 °C. Subsequently, the suspension was centrifuged at 13,000 rpm for 15 min at 25 °C. The supernatant was quantified by ultra-high-performance liquid chromatography (UHPLC) using single-point calibration of a known concentration of the compound in DMSO. The experiment was performed in triplicate.

[2] = REMA, 7 days + 48 h resazurin, read-out: MIC
[3] = converted from µg/mL, read-out: MIC (equivalent)

Row | melting point | Compound | Inhibition mode (MtFolB) | Ki (MtFolB) [nM] | also measured
1 | 289 to 291 °C (dec.) | C[C@@H](NC(=O)CSc1nc2c(=O)[nH]c(N)nc2[nH]1)C1CCCCC1 [Compound 3n, (R)-2-((2-amino-6-oxo-6,9-dihydro-1H-purin-8-yl)thio)-N-(1-cyclohexylethyl)acetamide] | – | – | –
2 | 294 to 296 °C (dec.) | C[C@H](NC(=O)CSc1nc2c(=O)[nH]c(N)nc2[nH]1)C1CCCCC1 [Compound 3m, (S)-2-((2-amino-6-oxo-6,9-dihydro-1H-purin-8-yl)thio)-N-(1-cyclohexylethyl)acetamide] | – | – | –
3 | 280 to 282 °C (dec.) | Nc1nc2[nH]c(SCC(=O)NC3CCCC3)nc2c(=O)[nH]1 [Compound 3h, 2-((2-amino-6-oxo-6,9-dihydro-1H-purin-8-yl)thio)-N-cyclopentylacetamide] | – | – | –
4 | 292 to 294 °C (dec.) | Nc1nc2[nH]c(SCC(=O)NC3CCCCCC3)nc2c(=O)[nH]1 [Compound 3f, 2-((2-amino-6-oxo-6,9-dihydro-1H-purin-8-yl)thio)-N-cycloheptylacetamide] | – | – | –
5 | 262 to 263 °C (dec.) | Nc1nc2[nH]c(SCC(=O)NCC3CCCCC3)nc2c(=O)[nH]1 [Compound 3l, 2-((2-amino-6-oxo-6,9-dihydro-1H-purin-8-yl)thio)-N-(cyclohexylmethyl)acetamide] | – | – | –

Continued, compound first:

Row | Compound | melting point | Inhibition mode (MtFolB) | Ki (MtFolB) [nM] | also measured
6 | Nc1nc2[nH]c(SCC(=O)Nc3ccc(C(=O)N4CCCC4)cc3)nc2c(=O)[nH]1 [Compound 3c, 2-((2-amino-6-oxo-6,9-dihydro-1H-purin-8-yl)thio)-N-(4-(pyrrolidine-1-carbonyl)phenyl)acetamide] | 237 to 239 °C (dec.) | Non-competitive | 300 ± 200 | Kii DHNP (MtFolB): 1.5 µM and 1.5 ± 0.9 µM
7 | Nc1nc2[nH]c(SCC(=O)Nc3ccc(N4CCOCC4)cc3)nc2c(=O)[nH]1 [Compound 3b, 2-((2-amino-6-oxo-6,9-dihydro-1H-purin-8-yl)thio)-N-(4-morpholinophenyl)acetamide] | 326 to 328 °C (dec.) | Competitive | 300 ± 80 | –
8 | CC1CCC(NC(=O)CSc2nc3c(=O)[nH]c(N)nc3[nH]2)CC1 (centres unmarked) [Compound 3g, 2-((2-amino-6-oxo-6,9-dihydro-1H-purin-8-yl)thio)-N-(4-methylcyclohexyl)acetamide] | 282 to 284 °C (dec.) | – | – | –
9 | Nc1nc2[nH]c(SCC(=O)Nc3ccc(N4CCCCC4)cc3)nc2c(=O)[nH]1 [Compound 3a, 2-((2-amino-6-oxo-6,9-dihydro-1H-purin-8-yl)thio)-N-(4-(piperidin-1-yl)phenyl)acetamide] | 258 to 260 °C (dec.) | Competitive | 400 ± 100 | –
10 | C[C@@H]1[C@H](NC(=O)CSc2nc3c(=O)[nH]c(N)nc3[nH]2)C[C@H]2C[C@@H]1C2(C)C [Compound 3k, 2-((2-amino-6-oxo-6,9-dihydro-1H-purin-8-yl)thio)-N-((1S,2S,3R,5R)-2,6,6-trimethylbicyclo [3.1.1]heptan-3-yl)acetamide] | 289 to 291 °C (dec.) | – | – | –
11 | Nc1nc2[nH]c(SCC(=O)Nc3ccc4c(c3)CCCC4)nc2c(=O)[nH]1 [Compound 3d, 2-((2-amino-6-oxo-6,9-dihydro-1H-purin-8-yl)thio)-N-(5,6,7,8-tetrahydronaphthalen-2-yl)acetamide] | 294 to 295 °C (dec.) | Competitive | 200 ± 50 | –
12 | Nc1nc2[nH]c(SCC(=O)Nc3cccc4c3CCCC4)nc2c(=O)[nH]1 [Compound 3e, 2-((2-amino-6-oxo-6,9-dihydro-1H-purin-8-yl)thio)-N-(5,6,7,8-tetrahydronaphthalen-1-yl)acetamide] | 260 to 261 °C (dec.) | Non-competitive | 1400 ± 300 | Kii DHNP (MtFolB): 6.3 µM and 6.3 ± 1.2 µM; MIC [1, 2]: 40 µg/mL; MIC [1, 3]: 108 µM; viability at 72 h, 75 µM (in vitro; African green monkey): 115 ± 2%; viability at 72 h, 87.5 µM (in vitro; African green monkey): 94 ± 10%; viability at 72 h, 100 µM (in vitro; African green monkey): 94 ± 3%; viability at 72 h, 75 µM (in vitro; human): 108 ± 3%; viability at 72 h, 87.5 µM (in vitro; human): 97 ± 2%; viability at 72 h, 100 µM (in vitro; human): 96 ± 2%; toxicity (HepG2 cells): no apparent toxicity; % of cell viability ± SEM (HepG2 cells; 75 µM): 100 ± 6%; % of cell viability ± SEM (HepG2 cells; 87.5 µM): 111 ± 3%; % of cell viability ± SEM (HepG2 cells; 100 µM): 104 ± 2%; toxicity (Vero cells): no apparent toxicity; % of cell viability ± SEM (Vero cells; 75 µM): 96 ± 1%; % of cell viability ± SEM (Vero cells; 87.5 µM): 102 ± 3%; % of cell viability ± SEM (Vero cells; 100 µM): 96 ± 2%; solubility at 4 h (physchem; pH 1.2, simulated gastric fluid): 612 µM (≈ 227 µg/mL); solubility at 4 h (physchem; pH 7.4, aqueous buffer): 1.1 µM (≈ 0.407 µg/mL); solubility at 4 h (physchem; pH 9.1, aqueous buffer): 37.6 µM (≈ 13.9 µg/mL)
13 | NNC(=O)c1ccncc1 [INH, Isoniazid] | – | – | – | MIC [1, 2]: 0.31 µg/mL; MIC [1, 3]: 2.3 µM
14 | CN(C(=O)CSc1nc2c(=O)[nH]c(N)nc2[nH]1)C1CCCCC1 [Compound 3j, 2-((2-amino-6-oxo-6,9-dihydro-1H-purin-8-yl)thio)-N-cyclohexyl-N-methylacetamide] | 272 to 274 °C (dec.) | – | – | –
15 | Nc1nc2[nH]c(SCC(=O)NC3CCC3)nc2c(=O)[nH]1 [Compound 3i, 2-((2-amino-6-oxo-6,9-dihydro-1H-purin-8-yl)thio)-N-cyclobutylacetamide] | 285 to 287 °C (dec.) | – | – | –
